Source: ChEMBL document CHEMBL1201862, “PubChem BioAssay data set” (2004)
Calls of active or inactive are those of the source.

Tests used:
[1] = target: Phospholipase D1 (Homo sapiens, UniProt Q13393); assay: PLD1 inhibitor potency in cells, dose response (AID 602151); format: functional;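 note: cellular PLD1 assay in Calu-1 cells stimulated with PMA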
[2] = target: Phospholipase D2 (Homo sapiens, UniProt O14939); assay: PLD2 inhibitor potency in cells, dose response (AID 602147); format: functional;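 note: cellular assay in HEK293 cells overexpressing GFP-tagged PLD2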
[3] = target: Genome polyprotein (dengue virus type 2, UniProt P29990); assay: Dengue-2 NS5 methyltransferase inhibitors, primary screen, biochemical, confirmation dose response (AID 588689); format: functional
[4] = tested on: Vero; assay: Vero cell cytotoxicity, cytotoxicity control for flavivirus capping enzyme inhibitors (AID 588742); format: functional; conditions: Chlorocebus sabaeus
[5] = tested on: Candida albicans; assay: reversal of fluconazole resistance in C. albicans, dose response, CaCi-2 strain, Alamar Blue, dry powder, set 3 (AID 488907); format: functional, organism-based
[6] = ZM109 Env clade C HIV-1 fusion inhibitors, dose response, HeLa effector, CEM target cells, luciferase, cherry-pick (AID 652058); format: functional, cell-based
[7] = CEM21 lymphoblast cell cytotoxicity, dose response, cytotoxicity control for viral fusion inhibitor project, CellTiter-Glo luminescence, cherry-picked (AID 652042); format: functional, cell-based;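 note: potency for signal decrease meaning cytotoxicity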
[8] = tested on: INS1; assay: beta cell apoptosis inhibitors, cytokine rescue, dose response, luminescence, retest (AID 449756); format: functional, cell-based;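 note: cell death triggered by IL-1 beta plus TNF-alpha plus IFN-gamma mixture; protective hits raise ATP signal compared with cytokine alone wells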
[9] = growth suppression of beta-catenin-knockout colon cells, dose response, cell-based, HCT116, human colon tumor (AID 1045); format: functional;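 note: HCT116 colon tumor cells with beta catenin knocked out; cells exposed to compound for 60 hours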
[10] = tested on: A-375; assay: MITF: Counter assay: A375 proliferation Measured in Cell-Based System Using Plate Reader - 2084-03_Inhibitor_Dose_DryPowder_Activity. [Related pubchem assays (depositor defined):AID488944]; format: functional; conditions: Homo sapiens
[11] = inhibitors of clade B AD8 Env fusion, dose response, cell-based, cherry-pick (AID 652062); format: functional;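 note: luciferase signal from cell-cell fusion driven by HIV-1 clade B AD8 Env; potency is for inhibitors of fusion seen as a drop in luminescence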
[12] = target: T1, Microphthalmia-associated transcription factor (Homo sapiens, UniProt O75030); assay: TRPM1 promoter luciferase signal decrease, dose response, MITF inhibitor project, cell-based, SK-MEL-5, cherry-picked, set 3 (AID 493073); format: functional
T1 sequence (O75030 whole entry): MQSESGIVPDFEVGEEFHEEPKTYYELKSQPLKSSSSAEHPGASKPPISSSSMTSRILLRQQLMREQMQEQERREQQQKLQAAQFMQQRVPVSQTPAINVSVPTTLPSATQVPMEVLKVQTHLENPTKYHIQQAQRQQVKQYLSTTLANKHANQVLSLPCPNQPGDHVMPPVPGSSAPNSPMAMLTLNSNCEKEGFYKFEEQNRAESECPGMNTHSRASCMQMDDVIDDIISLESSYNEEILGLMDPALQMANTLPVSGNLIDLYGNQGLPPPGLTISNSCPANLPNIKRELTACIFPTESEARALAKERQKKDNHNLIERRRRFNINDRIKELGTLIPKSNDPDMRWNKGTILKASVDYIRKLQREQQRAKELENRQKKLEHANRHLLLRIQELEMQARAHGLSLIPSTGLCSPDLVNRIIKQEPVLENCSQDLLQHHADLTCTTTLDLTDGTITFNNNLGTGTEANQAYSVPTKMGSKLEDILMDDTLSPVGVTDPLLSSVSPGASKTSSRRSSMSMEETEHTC

[13] = growth suppression of PTEN-null colon cells, dose response, cell-based, HCT116 PTEN knockout (AID 1047); format: functional;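 note: HCT116 colon tumor cells with PTEN knocked out; cells exposed to compound for 60 hours before readout; potency for loss of cell viability measured by luminescence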
[14] = inhibitors of HIV Env-driven cell fusion, dose response, cherry-pick (AID 652057); format: functional, cell-based
[15] = tested on: Escherichia coli; assay: microbe, parasite or virus in culture
[16] = tested on: Escherichia coli; assay: microbe, parasite or virus in culture; remark: listed apart in the source

Sequence of Phospholipase D1 (Q13393 whole entry): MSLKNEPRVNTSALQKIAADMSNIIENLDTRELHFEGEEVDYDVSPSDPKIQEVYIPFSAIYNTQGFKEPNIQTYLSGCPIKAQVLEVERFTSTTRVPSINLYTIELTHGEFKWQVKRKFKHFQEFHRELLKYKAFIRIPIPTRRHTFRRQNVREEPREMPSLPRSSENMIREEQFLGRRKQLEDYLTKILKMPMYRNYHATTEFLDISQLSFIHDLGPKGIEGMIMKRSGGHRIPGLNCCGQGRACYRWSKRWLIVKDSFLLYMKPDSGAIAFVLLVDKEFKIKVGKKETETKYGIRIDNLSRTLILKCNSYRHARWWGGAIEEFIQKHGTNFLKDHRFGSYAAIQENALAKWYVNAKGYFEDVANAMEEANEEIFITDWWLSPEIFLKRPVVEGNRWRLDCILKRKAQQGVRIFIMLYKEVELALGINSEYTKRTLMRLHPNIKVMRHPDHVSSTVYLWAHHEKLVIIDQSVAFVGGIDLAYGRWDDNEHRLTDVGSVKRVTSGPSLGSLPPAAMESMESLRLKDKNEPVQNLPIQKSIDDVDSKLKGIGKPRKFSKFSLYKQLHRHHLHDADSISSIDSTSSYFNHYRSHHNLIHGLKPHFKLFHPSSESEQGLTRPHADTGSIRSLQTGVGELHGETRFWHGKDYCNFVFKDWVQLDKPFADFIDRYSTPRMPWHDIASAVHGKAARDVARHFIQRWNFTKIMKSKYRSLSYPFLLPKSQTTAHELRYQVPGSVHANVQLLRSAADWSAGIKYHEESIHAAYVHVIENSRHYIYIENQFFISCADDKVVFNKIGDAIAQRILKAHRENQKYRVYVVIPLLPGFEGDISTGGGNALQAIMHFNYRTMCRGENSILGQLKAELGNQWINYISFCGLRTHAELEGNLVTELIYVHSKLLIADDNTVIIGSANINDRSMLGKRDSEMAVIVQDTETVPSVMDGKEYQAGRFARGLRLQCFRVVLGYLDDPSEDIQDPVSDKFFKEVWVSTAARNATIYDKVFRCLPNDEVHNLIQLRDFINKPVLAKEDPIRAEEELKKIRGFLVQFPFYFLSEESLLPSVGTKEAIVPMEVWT
Sequence of Genome polyprotein (P29990 2492-3391 limits assumed): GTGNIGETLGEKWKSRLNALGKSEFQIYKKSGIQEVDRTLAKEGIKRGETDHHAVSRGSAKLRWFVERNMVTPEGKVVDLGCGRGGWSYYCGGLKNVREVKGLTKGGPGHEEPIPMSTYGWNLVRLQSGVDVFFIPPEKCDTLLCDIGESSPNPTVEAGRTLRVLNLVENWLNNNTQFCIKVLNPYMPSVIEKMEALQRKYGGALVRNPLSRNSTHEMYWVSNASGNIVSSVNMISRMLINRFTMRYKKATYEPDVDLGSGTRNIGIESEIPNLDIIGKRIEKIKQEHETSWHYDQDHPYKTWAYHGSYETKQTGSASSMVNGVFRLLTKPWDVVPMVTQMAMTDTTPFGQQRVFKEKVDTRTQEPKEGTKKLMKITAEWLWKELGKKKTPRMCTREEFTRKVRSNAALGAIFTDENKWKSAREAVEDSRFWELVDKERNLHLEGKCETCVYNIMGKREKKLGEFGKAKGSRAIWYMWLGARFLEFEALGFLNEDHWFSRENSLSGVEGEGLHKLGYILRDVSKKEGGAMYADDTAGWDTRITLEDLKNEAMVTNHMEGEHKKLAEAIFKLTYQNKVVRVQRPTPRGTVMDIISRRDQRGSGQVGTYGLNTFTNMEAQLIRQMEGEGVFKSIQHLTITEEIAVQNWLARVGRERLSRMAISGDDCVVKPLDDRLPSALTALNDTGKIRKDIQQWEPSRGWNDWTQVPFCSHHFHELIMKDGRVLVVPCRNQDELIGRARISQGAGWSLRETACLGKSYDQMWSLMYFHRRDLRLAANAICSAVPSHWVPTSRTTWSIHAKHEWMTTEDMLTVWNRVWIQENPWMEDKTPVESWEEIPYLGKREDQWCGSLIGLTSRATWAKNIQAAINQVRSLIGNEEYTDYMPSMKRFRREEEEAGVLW
Sequence of Phospholipase D2 (O14939 whole entry): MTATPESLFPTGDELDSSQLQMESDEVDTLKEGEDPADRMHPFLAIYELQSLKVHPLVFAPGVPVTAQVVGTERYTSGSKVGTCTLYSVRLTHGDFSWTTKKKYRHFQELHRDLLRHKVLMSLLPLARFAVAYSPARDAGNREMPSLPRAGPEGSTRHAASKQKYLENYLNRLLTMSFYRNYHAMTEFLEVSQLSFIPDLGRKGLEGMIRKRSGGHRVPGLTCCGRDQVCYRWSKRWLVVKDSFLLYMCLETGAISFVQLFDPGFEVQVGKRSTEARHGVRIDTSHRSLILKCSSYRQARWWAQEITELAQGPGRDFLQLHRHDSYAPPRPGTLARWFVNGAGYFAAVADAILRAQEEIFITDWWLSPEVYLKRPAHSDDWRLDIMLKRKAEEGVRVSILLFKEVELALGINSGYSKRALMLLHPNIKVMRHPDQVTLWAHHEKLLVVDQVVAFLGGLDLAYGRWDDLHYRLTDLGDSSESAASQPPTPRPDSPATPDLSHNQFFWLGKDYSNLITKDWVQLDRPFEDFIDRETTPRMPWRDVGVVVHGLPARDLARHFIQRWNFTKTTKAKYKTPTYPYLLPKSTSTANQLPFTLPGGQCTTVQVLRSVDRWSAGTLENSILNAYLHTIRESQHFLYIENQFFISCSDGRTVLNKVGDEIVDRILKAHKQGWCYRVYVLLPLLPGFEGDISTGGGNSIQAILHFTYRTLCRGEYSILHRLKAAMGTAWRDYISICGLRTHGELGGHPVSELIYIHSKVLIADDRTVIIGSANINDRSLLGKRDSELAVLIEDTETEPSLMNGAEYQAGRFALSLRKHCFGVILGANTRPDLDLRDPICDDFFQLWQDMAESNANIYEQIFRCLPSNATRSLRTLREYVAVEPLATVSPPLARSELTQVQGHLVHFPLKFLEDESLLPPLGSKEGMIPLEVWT

Structure (SMILES): CC(C)[C@@H](CN1CCC2(CC1)C(=O)NCN2c1ccccc1)NC(=O)c1cnc2ccccc2c1
- IC50 [1]: 0.09 µM (active)
- IC50 [2]: 0.25 µM (active)

Structure (SMILES): CCOC(=O)c1c(NC(=O)/C=C/C(=O)O)sc(C)c1-c1ccc(Cl)cc1
- IC50 [3]: 43 µM (active)
- CC50 [4]: > 40 µM (active)

Structure (SMILES): O=C(C1CCCCC1)N1CCN(c2ccccn2)CC1
- AC50 [5]: 0.398 µM (active)

Structure (SMILES): CC1CCC(C(C)C)C(OC(=O)Cn2c(-c3ccccc3)[n+](C)c3ccccc32)C1 (configuration not stated)
- AC50 [6]: 4.62 µM (active)
- AC50 [7]: 8.36 µM (active)
- AC50 ([8]; Rattus norvegicus, INS1): 3.2 µM (active)
- AC50 ([8]; ins1): 2.71 µM (active)
- EC50 [9]: 2.97 µM (active)
- AC50 [10]: 41.3 µM (active)
- AC50 [11]: 5.44 µM (active)
- AC50 [12]: 2.37 µM (active)
- EC50 [13]: 3.06 µM (active)
- AC50 [14]: 6.82 µM (active)

Structure (SMILES): CCC[C@@H]1C[C@@]1(CCC)[C@@H](NC(=O)c1ccccc1)c1ccc(C(=O)OC)cc1
- AC50 [15]: 21.2 µM (active)
- AC50 [16]: > 380 µM (inactive)
